A short description of data set [1]: Bioavailability: concentration of total drug in dog plasma after single dose oral administration. The format is in vivo. Here is the method: FIG. 1 is a graph depicting the concentration of total [[4-(1,4,5,6-tetrahydro-4-methyl-6-oxo-3-pyridazinyl)phenyl]hydrazono]propanedinitrile in dog plasma over time after single dose oral administration of the racemate and the (-) enantiomer.
Concentration of total [[4-(1,4,5,6-tetrahydro-4-methyl-6-oxo-3-pyridazinyl)phenyl]hydrazono]propanedinitrile in dog plasma after single dose oral administration of the racemate (1 mg/kg) and (-)-enantiomer (0.5 mg/kg) is shown in FIG. 1. Curve A is for the (-)-enantiomer and curve B is for the racemic [[4-(1,4,5,6-tetrahydro-4-methyl-6-oxo-3-pyridazinyl)phenyl]hydrazono]propanedinitrile.

Data set [2] is described as follows: Water solubility in 67 mM phosphate buffer (pH 2). The format is physicochemical. The protocol:
The water solubility of (-) enantiomer and racemic mixture of
[[4-(1,4,5,6-tetrahydro-4-methyl-6-oxo-3-pyridazinyl)phenyl]-
hydrazono]propanedinitrite (l) in 67 mM phosphate buffer (pH 2).

The test system of data set [3] is right ventricular papillary muscle of guinea-pig. Description: Cardiotonic action in isolated, electrically paced, right ventricular papillary muscle. In kind it is cell-based. The conditions noted are these: for EC50: cardiotonic effect, guinea-pig papillary muscle, normal Tyrode's bath solution. Here is the method: Cardiotonic action of the (-) and (+) enantiomers of [[4-(1,4,5,6-tetrahydro-4-methyl-6-oxo-3-pyridazinyl)phenyl]hydrazono]propanedinitrile (I) was studied in isolated, electrically paced, right ventricular papillary muscle of guinea-pig. Experiments were carried out in normal Tyrode's bath solution as described by Otani et al., Japan.

Data set [4] can be described thus: LD50 given intravenously to rats. The following applies: rat, in vivo, intravenous.

The results in this text go back to patent publication US5424428A, “( -)-[[4-(1,4,5,6-tetrahydro-4-methyl-6-oxo-3-pyridazinyl)phenyl]-hydrazono]p r” (Orion-yhtyma Oy, priority 1991, dated 1995).

≈ marks a conversion by molar mass, not a printed value.

For the compound `CC1CC(=O)NN=C1c1ccc(NN=C(C#N)C#N)cc1` (single isomer, unassigned; (-)) [(-) enantiomer, (-)-[[4-(1,4,5,6-Tetrahydro-4-Methyl-6-Oxo-3-Pyridazinyl)phenyl]Hydrazono]Propanedinitrile], the “dose needed to produce the same plasma concentration level of the total drug substance, compared to racemate” value in data set [1] (dog, single dose oral, racemate 1 mg/kg, (-)-enantiomer 0.5 mg/kg, FIG. 1) is “less than half dose is needed to produce the same plasma concentration level of the total drug substance”. Moreover, in data set [1] (result in words), the “bioavailability compared to racemate” value was “superior compared to racemate”. Further, the solubility in data set [2] (aqueous buffer, water solubility, 67 mM phosphate buffer (pH 2)) was found to be 29 µg/mL (≈ 103 µM). The “water solubility of the (-) enantiomer compared to the racemate” value in data set [2] (ratio (-) enantiomer / racemate) is listed as “over 30 fold”. Moreover, the concentration for a half-maximal effect (EC50) in data set [3] worked out at 60 nM. Also, the “potency of (-) enantiomer relative to (+) enantiomer” value in data set [3] (cardiotonic, ratio (-) vs (+) enantiomer) was found to be 47 times. The cardiotonic potency entry in data set [3] (result in words) is listed as “cardiotonic potency is predominantly due to the optically active (-) enantiomer”. In addition, in data set [4], the LD50 was found to be 57 mg/kg.

`CC1CC(=O)NN=C1c1ccc(NN=C(C#N)C#N)cc1` (single isomer, unassigned; (+)) [(+), (+)-[[4-(1,4,5,6-Tetrahydro-4-Methyl-6-Oxo-3-Pyridazinyl)phenyl]Hydrazono]Propanedinitrile] had a 50% effective concentration (EC50) in data set [3] of 2800 nM.
